Here are results for 21 compounds from US12398119B2, “Piperazine azaspiro derivatives” (PFIZER INC., priority 2018, dated 2025).

One may read the EC50 as the concentration giving half of the maximal effect.

Like-named read-outs stand apart in the source and are kept apart here.

The target of the assay is T1, Human M4 mAChR (Homo sapiens, UniProt P08173).
T1 construct: host or cells: HEK293 (Sor-L9 HEK293 human/M4/GloSensor Cell Clone Number 40)
T1 sequence (P08173 1-479): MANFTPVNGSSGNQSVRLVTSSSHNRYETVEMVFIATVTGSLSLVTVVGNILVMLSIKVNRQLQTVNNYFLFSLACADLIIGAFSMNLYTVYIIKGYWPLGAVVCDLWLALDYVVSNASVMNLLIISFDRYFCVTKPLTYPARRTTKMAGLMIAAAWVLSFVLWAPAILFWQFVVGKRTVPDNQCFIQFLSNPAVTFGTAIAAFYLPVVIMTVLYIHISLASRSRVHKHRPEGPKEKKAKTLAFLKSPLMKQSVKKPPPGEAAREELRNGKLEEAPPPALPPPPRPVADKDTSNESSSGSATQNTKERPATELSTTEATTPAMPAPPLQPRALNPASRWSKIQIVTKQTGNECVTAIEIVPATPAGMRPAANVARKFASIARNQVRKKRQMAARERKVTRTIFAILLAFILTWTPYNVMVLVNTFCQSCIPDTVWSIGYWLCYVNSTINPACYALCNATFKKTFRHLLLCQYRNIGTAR
Briefly: Muscarinic hM4 Agonist GloSensor cAMP Assay. The assay is classed as cell-based. How it is done: Muscarinic hM4 Agonist GloSensor cAMP Assay Methods
Compounds were prepared in advance of the assay. Test compounds were solubilized in 100% dimethyl sulfoxide (DMSO, Sigma D8418) to a concentration of 30 mM. A 10-point intermediate dilution series using half log dilutions was created in 100% DMSO with a top concentration of 4 mM. The serially diluted compounds were spotted as 200 nL/well in a 384-well plate (Matrix Catalog Number 4325). The final compound concentration range in the assay was […] to 0.3 nM with a final DMSO concentration of 0.25%.
Human M4 mAChR expressing stable cell lines were generated using a parental HEK cell expressing the GloSensor construct (Promega Sor-L9 HEK293 human/M4/GloSensor Cell Clone Number 40). The cells were grown in 90% Dulbecco's Modified Eagle Medium (DMEM, Gibco 11960), 10% fetal bovine serum (FBS, Hyclone CH.30160-03), 1% Penicillin/Streptomycin (Gibco 15070-063), 500 µg/mL Geneticin (Gibco 10131-027), 200 µg/mL Hygromycin B (Invitrogen 10687-010) and 1% Glutamax (Thermo Fisher 35050061).
One day prior to assay, the cells were lifted using dissociation buffer (Gibco 13151-014) and spun in a centrifuge at 250 times gravity for 5 minutes at room temperature. Supernatant was removed and the cell pellet was resuspended in growth media to a concentration of […]. Cells were then added to white poly-d-lysine coated plates (Becton Dickinson 356661) as 40 μL per well (25,000 cells) and incubated overnight (20-24 hours) in a 37° C. humidified incubator with 5% carbon dioxide (C02).
The following day, culture media was removed from the cell plates and replaced with […] equilibration medium containing 88% CO2-independent medium (Invitrogen 18045088), 10% FBS and 2% GloSensor cAMP reagent (Promega E1291) that had been warmed to 37° C. Plates were then covered and incubated for 2 hours at room temperature while protected from light.
To the previously prepared serially diluted compound plates, 200 nL of 4 mM ACh (Sigma A2661, 10 μM final) or 200 nL of 100% DMSO (0.25% final) was added to the positive and negative control wells, respectively. Compound plates were then diluted by adding 16 μL of C02-independent media containing 10% FBS and an EC80 concentration of isoproterenol (Sigma 16504). Prior to compound testing, concentration response curves were run for isoproterenol to determine the EC80 concentration. At the end of the 2 hour equilibration, 10 µL was transferred from the compound plates to the cell plates. The cell plates were incubated an additional 7 minutes at room temperature and then read using a Multi-label EnVision plate reader (Perkin Elmer) for luminescence.
The raw data, expressed as relative light units, was analyzed using Activity Base (IDBS). The percent effect at each compound concentration was calculated based on and relative to the amount of cAMP produced by the positive and negative control wells contained on each assay plate. The positive control wells contained an EC100 concentration of ACh and the negative control wells contained only DMSO. The concentration and % effect values were fit using a four-parameter logistic dose response equation, and the concentration required for 50% effect (EC50) was determined as well as the maximum asymptote of the concentration response curve to define the efficacy.

[1] abbreviates: Emax: maximum asymptote of concentration response curve, relative to ACh positive control (EC100) and DMSO, geometric mean, read-out: % maximum effect.
Where [2] appears, read: HEK293 human/M4/GloSensor cells, EC80 isoproterenol, geometric mean, number of determinations in parentheses, read-out: EC50.

For the compound `CCOC(=O)N1CC2(CCC(N3CCN(c4ncccc4-c4cnc(C#N)cn4)CC3)C2)C1` (single isomer, unassigned) [enantiomer of Example 41, ethyl 6-{4-[3-(5-cyanopyrazin-2-yl)pyridin-2-yl]piperazin-1-yl}-2-azaspiro[3.4]octane-2-carboxylate], the concentration for a half-maximal effect (EC50) (enantiomers reported in footnotes to Table 1, number of determinations in parentheses, read-out: M4 EC50) was 268 nM. Besides, under “enantiomers reported in footnotes to Table 1, number of determinations in parentheses, read-out: M4 Emax”, the Emax was determined as 52.7%.

For `CCOC(=O)N1CC2(CCC(N3CCN(c4ncccc4-c4cnc(OC)cn4)CC3)C2)C1` (stereo not drawn) [Example 1, ethyl 6-{4-[3-(5-methoxypyrazin-2-yl)pyridin-2-yl]piperazin-1-yl}-2-azaspiro[3.4]octane-2-carboxylate], the Emax under setting [1] came out at 82.7%. For the same compound, the EC50 under setting [2] worked out at 4.59 nM.

For `CCOC(=O)N1CC2(CC[C@@H](N3CCN(c4ncccc4-c4cscn4)CC3)C2)C1` [Example 4, ethyl (6R)-6-{4-[3-(1,3-thiazol-4-yl)pyridin-2-yl]piperazin-1-yl}-2-azaspiro[3.4]octane-2-carboxylate], the Emax under setting [1] is 87.2%. Moreover, the EC50 under setting [2] came out at 2.17 nM.

For the compound `CCOC(=O)N1CC2(CC[C@@H](N3CCN(c4ncccc4-c4nncs4)CC3)C2)C1` [Example 5, ethyl (6R)-6-{4-[3-(1,3,4-thiadiazol-2-yl)pyridin-2-yl]piperazin-1-yl}-2-azaspiro[3.4]octane-2-carboxylate], under setting [1], the Emax stood at 46.4%. Besides, the EC50 under setting [2] is 1.6 nM.

For the compound `CCOC(=O)N1CC2(CC[C@@H](N3CCN(c4ncccc4OC)CC3)C2)C1` [Example 6, ethyl (6R)-6-[4-(3-methoxypyridin-2-yl)piperazin-1-yl]-2-azaspiro[3.4]octane-2-carboxylate], under setting [1], the Emax was 86.3%. Moreover, the concentration for a half-maximal effect (EC50) under setting [2] worked out at 1.57 nM.

In the case of `CCOC(=O)N1CC2(CC[C@H](N3CCN(c4ncccc4OC)CC3)C2)C1` [Example 7, ethyl (6S)-6-[4-(3-methoxypyridin-2-yl)piperazin-1-yl]-2-azaspiro[3.4]octane-2-carboxylate], the Emax under setting [1] was 47.7%. The EC50 under setting [2] stood at 425 nM.

`CCOC(=O)N1CC2(CC[C@@H](N3CCN(c4ncccc4-c4cnccn4)CC3)C2)C1` [Example 8, ethyl (6R)-6-{4-[3-(pyrazin-2-yl)pyridin-2-yl]piperazin-1-yl}-2-azaspiro[3.4]octane-2-carboxylate]: the Emax under setting [1] was 98.7%. For the same compound, the concentration for a half-maximal effect (EC50) under setting [2] came out at 2.23 nM.

As to `CCOC(=O)N1CC2(CC[C@@H](N3CCN(c4ncccc4-n4cc(C)cn4)CC3)C2)C1` [Example 9, ethyl (6R)-6-{4-[3-(4-methyl-1H-pyrazol-1-yl)pyridin-2-yl]piperazin-1-yl}-2-azaspiro[3.4]octane-2-carboxylate], the Emax under setting [1] came to 68.2%. For the same compound, the EC50 under setting [2] was found to be 14.8 nM.

In the case of `CCOC(=O)N1CC2(CCC(N3CCN(c4cccnc4OCC(F)(F)F)CC3)C2)C1` (stereo not drawn) [Example 10, ethyl 6-{4-[2-(2,2,2-trifluoroethoxy)pyridin-3-yl]piperazin-1-yl}-2-azaspiro[3.4]octane-2-carboxylate], the Emax under setting [1] turned out to be 91.5%. Also, under setting [2], the concentration for a half-maximal effect (EC50) amounted to 5.13 nM.

In the case of `CCOC(=O)N1CC2(CC[C@@H](N3CCN(c4nccnc4-c4cncs4)CC3)C2)C1` [Example 11, ethyl (6R)-6-{4-[3-(1,3-thiazol-5-yl)pyrazin-2-yl]piperazin-1-yl}-2-azaspiro[3.4]octane-2-carboxylate], under setting [1], the Emax was 66.4%. Under setting [2], the concentration giving a half-maximal response (EC50) worked out at 0.806 nM.

Consider `CCOC(=O)N1CCC2(CC(N3CCN(c4ncccc4OC)CC3)C2)C1` (stereo not drawn) [Example 12, ethyl 2-[4-(3-methoxypyridin-2-yl)piperazin-1-yl]-6-azaspiro[3.4]octane-6-carboxylate], for which the Emax under setting [1] stood at 95.2%. Also, the EC50 under setting [2] worked out at 23.3 nM.

As to `CCOC(=O)N1CCC2(CC(N3CCN(c4ncccc4-c4cnn(C)c4)CC3)C2)C1` (stereo not drawn) [Example 13, ethyl 2-{4-[3-(1-methyl-1H-pyrazol-4-yl)pyridin-2-yl]piperazin-1-yl}-6-azaspiro[3.4]octane-6-carboxylate], the Emax under setting [1] came to 92.6%. Besides, the concentration giving a half-maximal response (EC50) under setting [2] worked out at 4.82 nM.

Turning to `CCOC(=O)N1CC2(CCC(N3CCN(c4ncccc4-c4cncnc4)CC3)C2)C1` (stereo not drawn) [Example 14, ethyl 6-{4-[3-(pyrimidin-5-yl)pyridin-2-yl]piperazin-1-yl}-2-azaspiro[3.4]octane-2-carboxylate], the Emax under setting [1] turned out to be 93.7%. Besides, the EC50 under setting [2] was 1.2 nM.

With `CCOC(=O)N1CC2(CCC(N3CCN(c4ncccc4-c4nccnc4C)CC3)C2)C1` (stereo not drawn) [Example 15, ethyl 6-{4-[3-(3-methylpyrazin-2-yl)pyridin-2-yl]piperazin-1-yl}-2-azaspiro[3.4]octane-2-carboxylate], the Emax under setting [1] is 58.5%. Also, under setting [2], the EC50 was found to be 17.3 nM.

`CCOC(=O)N1CCC2(CC(N3CCN(c4ncccc4-c4cscn4)CC3)C2)C1` (stereo not drawn) [Example 16, ethyl 2-{4-[3-(1,3-thiazol-4-yl)pyridin-2-yl]piperazin-1-yl}-6-azaspiro[3.4]octane-6-carboxylate]: the Emax under setting [1] came to 104%. Under setting [2], the EC50 stood at 24.5 nM.

Take `CCOC(=O)N1CC2(CCC(N3CCN(c4ncccc4-c4ccnnc4)CC3)C2)C1` (stereo not drawn) [Example 17, ethyl 6-{4-[3-(pyridazin-4-yl)pyridin-2-yl]piperazin-1-yl}-2-azaspiro[3.4]octane-2-carboxylate]: the Emax under setting [1] amounted to 92.3%. Moreover, under setting [2], the 50% effective concentration (EC50) was 4.41 nM.

For the compound `CCOC(=O)N1CC2(CCC(N3CCN(c4ncccc4-c4ncco4)CC3)C2)C1` (stereo not drawn) [Example 18, ethyl 6-{4-[3-(1,3-oxazol-2-yl)pyridin-2-yl]piperazin-1-yl}-2-azaspiro[3.4]octane-2-carboxylate], under setting [1], the Emax stood at 54.9%. Also, the EC50 under setting [2] amounted to 5.11 nM.

As to `CCOC(=O)N1CC2(CC(N3CCN(c4ncccc4-c4ccc(C#N)cn4)CC3)C2)C1` [Example 24, ethyl 6-[4-(5-cyano-2,3′-bipyridin-2′-yl)piperazin-1-yl]-2-azaspiro[3.3]heptane-2-carboxylate], the Emax under setting [1] came to 70.6%. Moreover, the EC50 under setting [2] worked out at 53.8 nM.

As for `CCOC(=O)N1CC2(CCC(N3CCN(c4cccnc4OC4COC4)CC3)C2)C1` (stereo not drawn) [Example 25, ethyl 6-{4-[2-(oxetan-3-yloxy)pyridin-3-yl]piperazin-1-yl}-2-azaspiro[3.4]octane-2-carboxylate], the Emax under setting [1] was 83.1%. Besides, the concentration for a half-maximal effect (EC50) under setting [2] was found to be 5.37 nM.

For the compound `CCOC(=O)N1CC2(CCC(N3CCN(c4ncccc4N4CCC(c5ccnn5C)CC4)CC3)C2)C1` (stereo not drawn) [Example 28, ethyl 6-(4-{3-[4-(1-methyl-1H-pyrazol-5-yl)pipendin-1-yl]pyridin-2-yl}piperazin-1-yl)-2-azaspiro[3.4]octane-2-carboxylate], under setting [1], the Emax amounted to 60%. Also, under setting [2], the 50% effective concentration (EC50) stood at 1.78 nM.

For `CCOC(=O)N1CC2(CCC(N3CCN(c4ncccc4N4CCC(F)(F)C4)CC3)C2)C1` (stereo not drawn) [Example 29, ethyl 6-{4-[3-(3,3-difluoropyrrolidin-1-yl)pyridin-2-yl]piperazin-1-yl}-2-azaspiro[3.4]octane-2-carboxylate], under setting [1], the Emax turned out to be 84%. Further, the EC50 under setting [2] came to 4.45 nM.
